Assay [1] relates to CEM cells. The experiment in a line: Cell cycle analysis of asynchronous cells by flow cytometry (S-phase population, S-phase arrest). The assay is classed as cell-based, human. The conditions noted are these: for percentage of cell population in S-phase: asynchronous CEM, 12 h, VE-822 1 µM, DI-82 1 µM. The protocol: Cell cycle histograms. Cells were plated at a density of 0.5 x 10^6 cells/mL in respective media or drug treated media. Following 24 h incubation, cells were harvested and washed twice with PBS twice before staining with 0.5 ml of propidium iodide (Calbiochem, #P3566, 1 µg/mL) solution containing Ribonuclease A and 0.3% Triton-X 100. The samples were protected from light before acquisition by flow cytometry.
Cell cycle kinetics and cell cycle progression by intracellular detection of DNA-incorporated 5-ethynyl-2-deoxyuridine (EdU). CEM T-ALL cells were plated at a density of 0.5 x 10^6 cells/mL. Cells were pulsed with 10 µM EdU (Invitrogen) for 1 h, washed twice with PBS, and released in fresh media containing 5 µM deoxyribonucleosides, with and without drugs. Cells were collected at different time points following release in fresh media, and then fixed with 4% paraformaldehyde and permeabilized using saponin perm/wash reagent (Invitrogen). Cells were then stained with azide-Alexa Fluor 647 by Click reaction according to manufacturer’s protocol (Invitrogen; Click-iT EdU Flow cytometry kit, #C10634). […]

For assay [2], the system named is CEM cells. The assay is described as follows: Quantitative global proteomics (nLC-MS/MS), cells 12 h after release from G1 arrest. Conditions: for Protein expression level normalized to control (NT): Eukaryotic translation initiation factor 6 (EIF6) / Protein expression level normalized to control (NT): Ribonucleoside-diphosphate reductase subunit M2 (RRM2) / Protein expression level normalized to control (NT): Translationally-controlled tumor protein (TPT1): 12 h following release from G1 arrest, independent analyses #1-#4; for RNR Level / dCK Level: summary Fig. 2g, CEM cells. Set-up: key to RNR Level / dCK Level: ↓: partial decrease/inhibition; ↓↓↓: nearly complete inhibition; ↑: increase; ⟷: no change. The assay is classed as cell-based, human. The protocol: To investigate the molecular mechanisms underlying the metabolic consequences of ATR and dCK inhibition, global changes in protein expression were assessed in CEM cells using quantitative nano-LC tandem MS (nLC-MS/MS) (Fig. 2a). Chemical isotope coding following reductive dimethylation of peptide N-termini and lysine primary amines with differential stable isotopes (light:medium:heavy) was used to compare expression of experimental (VE-822, dCKi and VE-822 + dCKi) samples to controls (untreated, NT) by mixing equal proportions for triplex nLC-MS/MS quantitative analyses. The data set was filtered for proteins identified in all treatment groups in three independent experiments with coefficients of variation <20%. This yielded 1757 proteins with relative fold changes in treated vs. untreated cells ranging from 0.45 to 1.83. […] Protein levels of both RNR subunits, RRM1 and RRM2, as well as thymidylate synthase decreased by more than 20% following ATR inhibition (Fig. 2c). Changes in the expression of de novo enzymes observed in synchronous cells also occurred with ATR inhibition in asynchronous CEM cells (Fig. 2d and Supplementary Data 3), thereby arguing against the possibility of experimental artifacts introduced by Palbociclib-mediated cell cycle synchronization. The reduction in RRM2 levels induced by ATR inhibition was accompanied by an ~ 50% decrease in the phosphorylation of RRM2 on threonine 33 (pT33) (Fig. 2e), a phosphosite previously linked to the RRM2 stability. […]
Proteomic analyzes. CCRF-CEM cells were treated ± with a CDK4/6 inhibitor, PD-0332991 (Selleckchem) for 18 h to arrest at G1 phase. Cells were then washed twice with PBS and released in fresh media with treatment at a density of 1 x 10^6 cells/mL. Cells were collected at 12 h, washed twice with ice-cold PBS, and lysed by trituration using 1 mL per 5 x 10^7 cells of 0.5% sodium deoxycholate, 12 mM sodium lauryl sarcosine, and 50 mM triethylammonium bicarbonate, pH 8.0. Lysates were heated at 95 °C for 5 min and water bath sonicated at room temperature (RT) for 5 min. Bicinchoninic acid protein assay (Pierce) was performed to determine protein concentration. Disulfide bridges were reduced with 5 mM tris(2-carboxyethyl)phosphine (final concentration) at RT for 30 min with subsequent treatment with 10 mM iodoacetamide (final concentration) at RT in the dark for 30 min. Solutions were diluted 1:5 (v:v) with 50 mM triethylammonium bicarbonate. Proteins were cleaved with sequencing grade trypsin (Promega) at 1:100 (enzyme:protein) for 4 h at 37 °C followed by a second aliquot of trypsin 1:100 (enzyme:protein) overnight at 37 °C. Samples were acidified with 0.5% trifluoroacetic acid (final concentration), vortexed rapidly for 5 min, and centrifuged (16,000 x g for 5 min, RT) to pellet sodium deoxycholate. Supernatants were transferred to new microcentrifuge tubes and 20 µg of total peptide were desalted using C18 StageTips as previously described2. On-column dimethyl labeling using C18 StageTips was performed as previously described3. Briefly, StageTips were equilibrated with 20 μL of 250 mM 2-(N-morpholino)ethanesulfonic acid (MES) pH 5.5. Tryptic peptides were dimethyl labeled using 60 mM sodium cyanoborohydride, 0.4% formaldehyde, and 250 mM MES pH 5.5 for 10 min. Dimethyl labeled peptides were eluted from StageTips using 20 μL of 80% acetonitrile with 0.1% trifluoroacetic acid and lyophilized to dryness. Due to the nature of comparing 4 sample groups and being limited to 3 channels for stable isotope reductive amination labeling, two independent multiplexed experiments were run with each

From publication PMC5556071, “ATR inhibition facilitates targeting of leukemia dependence on convergent nucleotide biosynthetic pathways” (Nature Communications, 2017) come the findings set out here.

Several values for one entry are separate records, joined by “and”; a condition that tells them apart may be missing. Equal values may be shown once.

Regarding `NC(=S)N/N=C/c1ncccc1N` [3-AP], the “concentration inducing S-phase arrest” value in assay [1] (CEM, 24 h) is reported as 0.5 µM.

As for `CNCc1ccc(-c2cc(-c3nc(-c4ccc(S(=O)(=O)C(C)C)cc4)cnc3N)on2)cc1` [VE-822], the “percentage of cell population in S-phase” value in assay [1] (+ dNTP (10 µM)) is listed as 37%. Besides, in assay [1] (– dNTP), the “percentage of cell population in S-phase” value came out at 42%. Moreover, in assay [2], the “Protein expression level normalized to control (NT): Eukaryotic translation initiation factor 6 (EIF6)” value is 1.09 and 1.10 and 1.08; the “Protein expression level normalized to control (NT): Ribonucleoside-diphosphate reductase subunit M2 (RRM2)” value was 0.57 and 0.45 and 0.53; the “Protein expression level normalized to control (NT): Translationally-controlled tumor protein (TPT1)” value is 0.80 and 0.79 and 0.85; the “RNR Level” value is on record as “↓”. Besides, the “dCK Level” value in assay [2] is recorded as “⟷”. Also, in assay [2] (following ATR inhibition, 12 h), the “decrease of RRM1 protein level” value is recorded as greater than 20%, the “decrease of RRM2 protein level” value is on record as greater than 20% and the “decrease of thymidylate synthase protein level” value was greater than 20%.

Consider `COc1ccc(-c2nc([C@@H](C)Sc3nc(N)cc(N)n3)c(C)s2)cc1OCCNS(C)(=O)=O` [dCKi], for which, in assay [1] (+ dNTP (10 µM)), the “percentage of cell population in S-phase” value amounted to 31%. Moreover, in assay [1] (– dNTP), the “percentage of cell population in S-phase” value is on record as 30%. In addition, in assay [2] (listed as DI-82), the “Protein expression level normalized to control (NT): Eukaryotic translation initiation factor 6 (EIF6)” value was 1.00 and 0.98 and 0.95 and 0.99; the “Protein expression level normalized to control (NT): Ribonucleoside-diphosphate reductase subunit M2 (RRM2)” value was 1.17 and 0.99 and 1.08 and 1.15; the “Protein expression level normalized to control (NT): Translationally-controlled tumor protein (TPT1)” value is 0.99 and 0.98 and 0.95. For the same compound, in assay [2], the “RNR Level” value is reported as “⟷” and the “dCK Level” value was “⟷”.
